Assay results from patent US4112076A, “Epi-daunomycin and epi-adriamycin compounds and method of use” (priority 1975, dated 1978).
≈ marks a conversion by molar mass, not a printed value. Like-named read-outs stand apart in the source and are kept apart here.

What was measured:
[1] = system: experimental mouse tumors; experiment: Experimental mouse tumors (overall); type: in vivo; details: mouse, in vivo
Method: The test was carried out on groups of 10 mice (Swiss CD1). The compound under examination was administered intraperitoneally in varying doses to the test animals one day after intraperitoneal inoculation with 1×10^6 tumor cells/mouse.
The above compound was tested in comparison with adriamycin in several in vitro systems and experimental mouse tumors.

[2] = system: Ascites Sarcoma 180; experiment: Ascites Sarcoma 180 in Swiss CD1 mice, i.p.; type: in vivo, mouse (Swiss CD1); details: i.p. one day after inoculation
Method: In Table 5 the activity of 3'-4'-epi-6'-hydroxyadriamycin on Ascites Sarcoma 180 in mice is reported. The test was carried out on groups of 10 mice (Swiss CD1). The compound under examination was administered intraperitoneally in varying doses to the test animals one day after intraperitoneal inoculation with 1×10^6 tumor cells/mouse.
The average survival time is given as percentage of the survival time of untreated animals, which is arbitrarily designated as 100%. The number of long term survivors (LTS) is also reported.

[3] = system: L 1210 leukemia; experiment: L 1210 leukemia bearing BDF mice, single i.p. treatment on first day; type: in vivo, mouse (BDF); details: for T/C %: single i.p. day 1
Description: Inbread BDF mice were intraperitoneally inoculated with 1×10^5 leukemia cells/mouse and then treated with 3'-4'-epi-6'-hydroxydaunomycin:Single treatment i.p. on the first day.

[4] = system: solid sarcoma 180; experiment: Solid sarcoma 180, treatment i.v. on days 1 to 5; type: in vivo, mouse
Description: (§1) Activity of 4-demethoxy-4'-epi-adriamycin on
solid sarcoma 180. Treatment i.v. on days 1 to 5.
Average data of 2 experiments.
^a Tumor weight on day 11, % over untreated controls.

[5] = system: Moloney Sarcoma Virus (MSV); experiment: Formation of foci by Moloney Sarcoma Virus (MSV) in vitro (antiviral action); type: cell-based; details: Fibroblast, 72 h
Method: (§2) The test compound was evaluated on mouse embryo fibroblast (MEF) cultures infected with MSV and on similar uninfected cultures. After a treatment of three days the inhibiting doses (ID50) were evaluated on cell proliferation in uninfected cultures (cytotoxic action) and on MSV foci formation in infected cultures (antiviral action).
^b inhibition of MSV foci formation

[6] = system: L 1210 leukemia; experiment: Ascitic leukemia L 1210, treatment i.p. on day 1; type: in vivo, mouse
Description: as §1
(§3) ascitic leukemias. Treatment i.p. on day 1.
(§4) ^a Median survival time, % over untreated controls
(§5) ^b Long term survivors at 60 days

[7] = Proliferation of uninfected mouse embryo fibroblast (MEF) cultures (cytotoxic action); type: cell-based; details: mouse, mouse embryo fibroblasts
Method: as §2
^c inhibition of mouse embryo fibroblasts proliferation

[8] = system: Hela cells; experiment: Cloning efficiency of Hela cells in vitro (colony inhibition); type: cell-based; details: Homo sapiens
Method: After treatment for 2, 8 and 24 hours, Hela cells were seeded (200 cells per plate) and the number of colonies determined 8 days later. The inhibiting dose (ID50) represents the does which produces a 50% inhibition of colonies.
^a cloning efficiency of Hela cells

[9] = system: Gross leukemia; experiment: Gross leukemia, treatment i.v. on days 1 to 3; type: in vivo, mouse
Description: On Gross leukemia (which is a systemic tumor transplanted i.v.), the increase in the life span of mice treated with the two compounds at equitoxic doses was similar.
Activity of 4-demethoxy-4'-epi-adriamycin
on Gross leukemia. Treatment i.v. on days
Average data of 2 experiments^a.
^a See legends to Table 7.

[10] = system: P 388 leukemia; experiment: Ascitic leukemia P 388, treatment i.p. on day 1; type: in vivo, mouse
Description: as §1, §3, §4, §5

What does the source list for `COc1cccc2c1C(=O)c1c(O)c3c(c(O)c1C2=O)C[C@@](O)(C(=O)CO)C[C@@H]3O[C@H]1C[C@@H](N)[C@@H](O)[C@H](CO)O1` [3'-4'-epi-6'-hydroxyadriamycin, 3',4'-epi-6'-hydroxy-adriamycin]?
activity in experimental tumors [1]: active in experimental tumors; LTS (long term survivors) ([2]; 3 ng/Kg (so in the source)): 1/10; T/C % (average survival time, % of untreated) ([2]; 3 ng/Kg (so in the source)): 123%; LTS (long term survivors) ([2]; 4.5 ng/Kg (so in the source)): 2/10; T/C % (average survival time, % of untreated) ([2]; 4.5 ng/Kg (so in the source)): 226%; T/C % (average survival time, % of untreated) ([2]; 6.7 ng/Kg (so in the source)): 138%; T/C % (average survival time, % of untreated) ([2]; 10.5 ng/Kg (so in the source)): 138%

With `COc1cccc2c1C(=O)c1c(O)c3c(c(O)c1C2=O)C[C@@](O)(C(C)=O)C[C@@H]3O[C@H]1C[C@@H](N)[C@@H](O)[C@H](CO)O1` [3'-4'-epi-6'-hydroxydaunomycin, 3',4'-epi-6'-hydroxy-daunomycin] as the molecule, how does the T/C % ([3]; 7.5 ng/Kg (so in the source)) read?
Its T/C % is 150%.

What about the T/C % ([3]; 11.5 ng/Kg (so in the source)) of the same molecule?
The T/C % was 150%.

And the T/C % ([3]; 17.25 ng/Kg (so in the source))?
Its T/C % is 150%.

What about the in vivo activity ([3]; Table 4) of the same molecule?
Its in vivo activity is “significant in vivo activity”.

With `COc1cccc2c1C(=O)c1c(O)c3c(c(O)c1C2=O)C[C@@](O)(C(=O)CO)C[C@@H]3O[C@H]1C[C@H](N)[C@H](O)[C@H](C)O1` [Adriamycin, adriamycin] as the molecule, how does the “T/C % (tumor weight on day 11, % over untreated controls)” value ([4]; 2 mg/Kg i.v. days 1 to 5) read?
The value was 22.2%.

What about the Toxic deaths ([4]; 2 mg/Kg i.v. days 1 to 5) of the same molecule?
The Toxic deaths was 3/19.

And the “T/C % (tumor weight on day 11, % over untreated controls)” value ([4]; 2.5 mg/Kg i.v. days 1 to 5)?
Its value is 13.5%.

What about the Toxic deaths ([4]; 2.5 mg/Kg i.v. days 1 to 5) of the same molecule?
Its Toxic deaths is 11/18.

And the IC50 ([5]; read-out: ID50, inhibition of MSV foci formation)?
The IC50 was 0.01 ng/mL (≈ 0.0184 nM).

What about the “LTS (long term survivors at 60 days)” value ([6]; 2.5 mg/Kg i.p. day 1) of the same molecule?
Its value is 4/11.

And the “T/C % (median survival time, % over untreated controls)” value ([6]; 2.5 mg/Kg i.p. day 1)?
Its value is 155%.

And the Toxic deaths ([6]; 2.5 mg/Kg i.p. day 1)?
Its Toxic deaths is 0/11.

What about the “LTS (long term survivors at 60 days)” value ([6]; 5 mg/Kg i.p. day 1) of the same molecule?
The value was 1/11.

What about the “T/C % (median survival time, % over untreated controls)” value ([6]; 5 mg/Kg i.p. day 1) of the same molecule?
The value was 166%.

What about the Toxic deaths ([6]; 5 mg/Kg i.p. day 1) of the same molecule?
Its Toxic deaths is 1/11.

What about the “LTS (long term survivors at 60 days)” value ([6]; 10 mg/Kg i.p. day 1) of the same molecule?
Its value is 3/11.

And the “T/C % (median survival time, % over untreated controls)” value ([6]; 10 mg/Kg i.p. day 1)?
The value was 155%.

What about the Toxic deaths ([6]; 10 mg/Kg i.p. day 1) of the same molecule?
The Toxic deaths was 7/11.

What about the CC50 at 72 h ([7]; 72 (hours) treatment, Table 6, read-out: ID50, inhibition of mouse embryo fibroblasts proliferation) of the same molecule?
The CC50 at 72 h was 0.026 ng/mL (≈ 0.0478 nM).

And the IC50 ([8]; read-out: ID50, cloning efficiency of Hela cells, 8 (hours) treatment, Table 6)?
Its IC50 is 28 ng/mL (≈ 51.5 nM).

And the IC50 ([8]; read-out: ID50, cloning efficiency of Hela cells, 24 (hours) treatment, Table 6)?
Its IC50 is 12.5 ng/mL (≈ 23 nM).

And the “LTS (long term survivors)” value ([9]; 3.5 mg/Kg i.v. days 1 to 3)?
Its value is 0/20.

And the “T/C % (median survival time, % over untreated controls)” value ([9]; 3.5 mg/Kg i.v. days 1 to 3)?
Its value is 164%.

What about the Toxic deaths ([9]; 3.5 mg/Kg i.v. days 1 to 3) of the same molecule?
Its Toxic deaths is 0/20.

What about the “LTS (long term survivors)” value ([9]; 4.5 mg/Kg i.v. days 1 to 3) of the same molecule?
Its value is 0/20.

And the “T/C % (median survival time, % over untreated controls)” value ([9]; 4.5 mg/Kg i.v. days 1 to 3)?
The value was 182%.

And the Toxic deaths ([9]; 4.5 mg/Kg i.v. days 1 to 3)?
The Toxic deaths was 0/20.

What about the “LTS (long term survivors)” value ([9]; 5.5 mg/Kg i.v. days 1 to 3) of the same molecule?
The value was 1/10.

And the “T/C % (median survival time, % over untreated controls)” value ([9]; 5.5 mg/Kg i.v. days 1 to 3)?
Its value is 200%.

And the Toxic deaths ([9]; 5.5 mg/Kg i.v. days 1 to 3)?
Its Toxic deaths is 1/10.

What about the “LTS (long term survivors)” value ([9]; 6 mg/Kg i.v. days 1 to 3) of the same molecule?
The value was 0/10.

And the “T/C % (median survival time, % over untreated controls)” value ([9]; 6 mg/Kg i.v. days 1 to 3)?
Its value is 214%.

And the Toxic deaths ([9]; 6 mg/Kg i.v. days 1 to 3)?
Its Toxic deaths is 3/10.

What about the “LTS (long term survivors at 60 days)” value ([10]; 2.5 mg/Kg i.p. day 1) of the same molecule?
Its value is 0/10.

What about the “T/C % (median survival time, % over untreated controls)” value ([10]; 2.5 mg/Kg i.p. day 1) of the same molecule?
The value was 150%.

And the Toxic deaths ([10]; 2.5 mg/Kg i.p. day 1)?
Its Toxic deaths is 0/10.

What about the “LTS (long term survivors at 60 days)” value ([10]; 5 mg/Kg i.p. day 1) of the same molecule?
The value was 0/10.

And the “T/C % (median survival time, % over untreated controls)” value ([10]; 5 mg/Kg i.p. day 1)?
The value was 162%.

And the Toxic deaths ([10]; 5 mg/Kg i.p. day 1)?
Its Toxic deaths is 0/10.

And the “LTS (long term survivors at 60 days)” value ([10]; 10 mg/Kg i.p. day 1)?
Its value is 1/10.

What about the “T/C % (median survival time, % over untreated controls)” value ([10]; 10 mg/Kg i.p. day 1) of the same molecule?
The value was 200%.

And the Toxic deaths ([10]; 10 mg/Kg i.p. day 1)?
The Toxic deaths was 0/10.

And the “LTS (long term survivors)” value ([2]; 4.5 ng/Kg (so in the source))?
Its value is 1/10.

And the “T/C % (average survival time, % of untreated)” value ([2]; 4.5 ng/Kg (so in the source))?
Its value is 250%.

For `COc1cccc2c1C(=O)c1c(O)c3c(c(O)c1C2=O)C[C@@](O)(C(C)=O)C[C@@H]3O[C@H]1C[C@H](N)[C@H](O)[C@H](C)O1` [Daunomycin], which IC50 ([5]; read-out: Antiviral action ID50) is on record?
Its IC50 is 3 ng/mL (≈ 5.69 nM).

And the CC50 at 72 h ([7]; uninfected MEF, three days treatment, Table 2, read-out: Cytotoxic action ID50)?
Its CC50 at 72 h is 16 ng/mL (≈ 30.3 nM).

What about the IC50 ([8]; 2 h, read-out: ID50 (action on Hela cells), 2 hours treatment, Table 1) of the same molecule?
The IC50 was 17000 ng/mL (≈ 32200 nM).

And the IC50 ([8]; 8 h, read-out: ID50 (action on Hela cells), 8 hours treatment, Table 1)?
The IC50 was 8500 ng/mL (≈ 16100 nM).

And the IC50 ([8]; 24 h, read-out: ID50 (action on Hela cells), 24 hours treatment, Table 1)?
Its IC50 is 6800 ng/mL (≈ 12900 nM).
